According to PubChem BioAssay AID2060361 (Molecular Pharmacology Branch, DTP, NCI, 2025):

Tested on: 463943-066-T-J2-PDC tumor spheroids with HUVEC/MSC, viability
Test: Anticancer human tumor 463943-066-T-J2-PDC patient-derived colon adenocarcinoma cell line growth inhibition [TAK]
Conditions: for IC50: curve of first compound; for viability, T/C: stronger effect = lower value; active means viability on the fitted dose curve at most 10% of control; inactive means the rest
Summary of the method: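 Drug combinations, each paired with TAK-243 or ipatasertib, were tested on multi-cell spheroids of 60% malignant cells, 25% HUVEC and 15% hMSC. Top concentrations were at or near the clinical Cmax (10 microM if undetermined), decreasing by half-log; viability is given as % test/control.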
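Further: spheroids exposed to drugs for seven days.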
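Wherever viability, T/C is given: 100% = DMSO vehicle control wells.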

COc1c(OCCCN2CCOCC2)ccc2c3n(c(=NC(=O)c4cnc(N)nc4)nc12)CCN3 + CC(C)NCC(C(=O)N1CCN(c2ncnc3c2C(C)CC3O)CC1)c1ccc(Cl)cc1
inactive: viability, T/C (second compound 0.3 µM, first compound 0.00316 µM) 91.4% | viability, T/C (second compound 0.3 µM, first compound 0.01 µM) 91.3% | viability, T/C (second compound 0.3 µM, first compound 0.0316 µM) 85% | viability, T/C (second compound 0.3 µM, first compound 0.1 µM) 77.1% | viability, T/C (second compound 0.3 µM, first compound 0.316 µM) 70.3% | viability, T/C (second compound 0.3 µM, first compound 1 µM) 66.5% | viability, T/C (second compound 0.949 µM, first compound 0.00316 µM) 88.6% | viability, T/C (second compound 0.949 µM, first compound 0.01 µM) 93.1% | viability, T/C (second compound 0.949 µM, first compound 0.0316 µM) 75.1% | viability, T/C (second compound 0.949 µM, first compound 0.1 µM) 78.2% | viability, T/C (second compound 0.949 µM, first compound 0.316 µM) 77.2% | viability, T/C (second compound 0.949 µM, first compound 1 µM) 68.1% | viability, T/C (second compound 3 µM, first compound 0.00316 µM) 93.7% | viability, T/C (second compound 3 µM, first compound 0.01 µM) 86.8% | viability, T/C (second compound 3 µM, first compound 0.0316 µM) 83.5% | viability, T/C (second compound 3 µM, first compound 0.1 µM) 79.8% | viability, T/C (second compound 3 µM, first compound 0.316 µM) 79.8% | viability, T/C (second compound 3 µM, first compound 1 µM) 77% | viability, T/C (second compound 9.49 µM, first compound 0.00316 µM) 81.3% | viability, T/C (second compound 9.49 µM, first compound 0.01 µM) 85.5% | viability, T/C (second compound 9.49 µM, first compound 0.0316 µM) 86.4% | viability, T/C (second compound 9.49 µM, first compound 0.1 µM) 73.6% | viability, T/C (second compound 9.49 µM, first compound 0.316 µM) 75.6% | viability, T/C (second compound 9.49 µM, first compound 1 µM) 71.2% | viability, T/C (second compound 30 µM, first compound 0.00316 µM) 85.6% | viability, T/C (second compound 30 µM, first compound 0.01 µM) 87.5% | viability, T/C (second compound 30 µM, first compound 0.0316 µM) 74.6% | viability, T/C (second compound 30 µM, first compound 0.1 µM) 73.9% | viability, T/C (second compound 30 µM, first compound 0.316 µM) 66.5% | viability, T/C (second compound 30 µM, first compound 1 µM) 71.2%
> 1 µM: IC50 (second compound 0.3 µM) | IC50 (second compound 0.949 µM) | IC50 (second compound 3 µM) | IC50 (second compound 9.49 µM) | IC50 (second compound 30 µM)
